According to PubChem BioAssay (NCI):
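Protocol summary: plate cells (96-well), add compound at 5 concentrations, incubate 48 h, interpolate endpoints linearly. At the TGI there is no net growth.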 Where a SMILES comes first, the peptide text is derived from it. The star is where a group is joined. Cbz = O=C(OCc1ccccc1)*

Experiments:
Experiment in all cases: inhibition of tumour cell growth, NCI panel, 48 h
[1] = tested on: MDA-MB-435
[2] = tested on: U251 CNS
[3] = tested on: RPMI-8226 leukemia
[4] = tested on: SNB-19 CNS
[5] = tested on: MDA-MB-231 breast
[6] = tested on: MOLT-4 leukemia
[7] = tested on: SF-539 CNS
[8] = tested on: HL-60(TB) leukemia
[9] = tested on: MALME-3M melanoma
[10] = tested on: OVCAR-5 ovarian
[11] = tested on: OVCAR-4 ovarian
[12] = tested on: HS 578T breast

Compound	TGI [1] [µM]	TGI [2] [µM]	TGI [3] [µM]	TGI [4] [µM]	TGI [5] [µM]	TGI [6] [µM]	TGI [7] [µM]	TGI [8] [µM]	TGI [9] [µM]	TGI [10] [µM]	TGI [11] [µM]	TGI [12] [µM]
Nc1ccccc1OCc1cc(=O)c(OCc2ccccc2)co1	> 100	> 100	> 100	> 100	55.8	> 100	65.1	> 100	> 100	> 100	> 100	–
COc1cc(C2c3cc4c(cc3OC(NCc3ccccc3)C2C)OCO4)cc(OC)c1OC (stereo not given)	–	21.2	24.2	> 100	2.06	31.8	0.817	0.699	0.671	> 100	> 100	–
CC(=O)OCC1OC(n2c(C)c(C(C)=O)c(-c3cccc4ccccc34)c(C#N)c2=S)C(OC(C)=O)C(OC(C)=O)C1OC(C)=O (stereo not given)	> 100	> 100	–	> 100	> 100	> 100	> 100	> 100	> 100	> 100	> 100	–
O=C(Cc1ccccc1)NNc1nc(NNC(=O)c2ccncc2)nc(Nc2ccc(Cl)cc2)n1	–	> 10	> 10	–	> 10	> 10	> 10	> 10	> 10	–	> 10	> 10
O=S1c2ccccc2SCSc2ccccc21	–	> 100	70.1	> 100	> 100	> 100	> 100	–	> 100	> 100	> 100	–
CCOC(=O)C(CC(=O)OC)NC(=O)C(CC(=O)OC)NC(=O)C(CC(=O)OC)NC(=O)C(CC(=O)OC)NC(=O)OCc1ccccc1 (stereo not given) (Cbz-D(OMe)D(OMe)D(OMe)D(OMe)-OEt; configuration not given here)	–	> 100	> 100	> 100	> 100	> 100	–	> 100	> 100	> 100	–	> 100
CN(C)CCNC(=O)c1cc(-c2nccn2C)nc2ccccc12	> 100	> 100	> 100	> 100	> 100	> 100	> 100	> 100	> 100	> 100	–	–
CCCCCCCSCC1C(=O)C23C(O)C1CCC2C12COC3(O)C(O)C1C(C)(C)CCC2O (stereo not given)	–	22.7	27.3	33.9	–	28.2	29.3	16.3	27.4	31.4	25.3	–
CCOC(=O)/C=C/c1c[nH]c(C(=O)OCC)c1	–	> 100	> 100	> 100	–	> 100	> 100	> 100	> 100	> 100	> 100	–
FC(F)(F)C1(C(F)(F)F)O[SiH]2(OC(C(F)(F)F)(C(F)(F)F)c3ccccc32)c2ccccc21	–	19.6	97.4	> 100	–	30.5	25.4	–	42	28.4	23.4	–
CN(C)/C=C/c1ccncc1	> 100	> 100	> 100	> 100	> 100	> 100	> 100	–	> 100	> 100	> 100	–
O=C(CN1CCOCC1)Nc1ccc2c(c1)C1Oc3ccccc3CC1CO2 (stereo not given)	> 100	> 100	> 100	> 100	> 100	> 100	> 100	–	> 100	> 100	–	–
COc1ccc(CCc2ccccc2CC(=O)O)cc1	–	> 100	> 100	> 100	–	> 100	> 100	> 100	> 100	> 100	> 100	–
COc1ccc([C@H](NC(=O)c2ccccc2)[C@@H](O)C(=O)O[C@H]2C[C@@]3(O)C(OC(=O)c4ccccc4)C4[C@](C)(C(=O)[C@H](OC(C)=O)C(=C2C)C3(C)C)[C@@H](O)C[C@H]2OC[C@@]42OC(C)=O)cc1 (stereo not given in full)	–	–	> 10	> 10	> 10	> 5.11	0.00758	0.0279	> 10	> 10	> 10	0.0122
CC(C)(C)[Si](C)(C)OCC#C[C@@]1(O)CCCCC1CC(Sc1ccccc1)Sc1ccccc1 (stereo not given in full)	31.4	26.1	73.3	28.7	34.7	51	–	41.9	32.3	27.2	29.2	–
COc1ccc2nc3ccc(OC)cc3c(SCC3CO3)c2c1 (stereo not given)	40	27.1	74.6	80.4	28.7	–	23.7	–	30.5	69.3	38.1	–
COc1ccc(/C(C)=N/NC(=O)c2ccncc2)cc1OC	–	> 10	> 10	–	> 10	> 10	> 10	> 10	> 10	–	> 10	> 10
